Source: ChEMBL document CHEMBL1201862, “PubChem BioAssay data set” (2004)
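The compound was tested at five concentrations on cells cultured in 96-well plates, with a 48-hour exposure period. At the GI50, growth is halved.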 Active and inactive are the calls of the source. No stated cut-off is given here; in the data, active = GI50 up to about 1.1 µM and inactive = higher.

Assays:
Experiment in all cases: DTP human tumour cell line panel, 48 h
DU-145 = system: DU-145
NCI-H226 = system: NCI-H226
RXF 393 = system: RXF 393
SW-620 = system: SW-620
HOP-92 = system: HOP-92
PC-3 = system: PC-3
CAKI-1 = system: CAKI-1
SN12C = system: SN12C
SK-MEL-28 = system: SK-MEL-28
NCI-H522 = system: NCI-H522
OVCAR-3 = system: OVCAR-3
KM12 = system: KM12
SK-MEL-5 = system: SK-MEL-5
MOLT-4 = system: MOLT-4
HCC 2998 = system: HCC 2998
HOP-62 = system: HOP-62
SNB-19 = system: SNB-19
HCT-116 = system: HCT-116
HCT-15 = system: HCT-15

SMILES	GI50 (DU-145)	GI50 (NCI-H226)	GI50 (RXF 393)	GI50 (SW-620)	GI50 (HOP-92)	GI50 (PC-3)	GI50 (CAKI-1)	GI50 (SN12C)	GI50 (SK-MEL-28)	GI50 (NCI-H522)	GI50 (OVCAR-3)	GI50 (KM12)	GI50 (SK-MEL-5)	GI50 (MOLT-4)	GI50 (HCC 2998)	GI50 (HOP-62)	GI50 (SNB-19)	GI50 (HCT-116)	GI50 (HCT-15) [µM]
C=C(Cl)C(C)(Cl)CCC(Cl)C(C)C (stereo unspecified)	> 100 µM (inactive)	> 100 µM (inactive)	> 100 µM (inactive)	99.5 µM (inactive)	87.1 µM (inactive)	> 100 µM (inactive)	> 100 µM (inactive)	> 100 µM (inactive)	> 100 µM (inactive)	37 µM (inactive)	> 100 µM (inactive)	> 100 µM (inactive)	> 100 µM (inactive)	36.7 µM (inactive)	> 100 µM (inactive)	> 100 µM (inactive)	> 100 µM (inactive)	> 100 µM (inactive)	
COc1ccc2c(c1)-c1nc(=S)n(CCN(C)C)c3ccc([N+](=O)[O-])c(c13)N2	0.923 µM (active)	0.973 µM (active)	1.1 µM (active)	0.404 µM (active)	6.61 µM (inactive)	1.06 µM (active)	1.49 µM (inactive)	0.638 µM (active)	1.44 µM (inactive)	0.533 µM (active)	1.23 µM (inactive)	0.971 µM (active)	3.65 µM (inactive)	0.15 µM (active)	0.809 µM (active)	0.594 µM (active)	0.828 µM (active)	0.247 µM (active)	0.731
c1ccc(NN=C(c2ccccn2)c2ccccn2)nc1	0.331 µM (active)	0.285 µM (active)	0.583 µM (active)	0.141 µM (active)	0.488 µM (active)	0.191 µM (active)	0.0757 µM (active)	0.142 µM (active)	0.869 µM (active)	< 0.01 µM (active)	< 0.0217 µM (active)	0.552 µM (active)	0.0893 µM (active)		2.23 µM (inactive)	0.346 µM (active)	0.598 µM (active)	0.0785 µM (active)	0.0893
COc1ccc2c(c1)-c1c(c3cc(OC)ccc3n1CCCN(C)C)CC2	16.2 µM (inactive)	1.84 µM (inactive)	6.93 µM (inactive)	11.1 µM (inactive)	12.2 µM (inactive)	10.3 µM (inactive)	12.4 µM (inactive)	12 µM (inactive)	5.78 µM (inactive)	9.91 µM (inactive)	14.1 µM (inactive)	7.93 µM (inactive)	2.68 µM (inactive)	5.93 µM (inactive)	3.13 µM (inactive)	14.3 µM (inactive)	14.6 µM (inactive)	5.2 µM (inactive)	11.4
Cc1nc(O)nc2nc3ccc(Cl)cc3c(NC(C)(CO)CO)c12	> 70.1 µM (inactive)	> 84.5 µM (inactive)	20.1 µM (inactive)	> 100 µM (inactive)	74.1 µM (inactive)	57.9 µM (inactive)	13.9 µM (inactive)	> 100 µM (inactive)	> 100 µM (inactive)	24.2 µM (inactive)	> 61.2 µM (inactive)	> 100 µM (inactive)	> 60 µM (inactive)	> 40.8 µM (inactive)	> 100 µM (inactive)	21.2 µM (inactive)	45.2 µM (inactive)	26.7 µM (inactive)	88.3
CCOC(=O)c1c(Br)c(-c2ccc(Br)cc2)c(Br)n1C	31.1 µM (inactive)	15.5 µM (inactive)	11.2 µM (inactive)	23.2 µM (inactive)	7.31 µM (inactive)	19.4 µM (inactive)	17.1 µM (inactive)	25.2 µM (inactive)	15.3 µM (inactive)	9.38 µM (inactive)	14.7 µM (inactive)	10.2 µM (inactive)	17.5 µM (inactive)	16.4 µM (inactive)	19.5 µM (inactive)	19.9 µM (inactive)	28.3 µM (inactive)	6.32 µM (inactive)	13
CC(C)(C(=O)N(C(=O)N1CCN(c2ccccc2)CC1)S(=O)(=O)c1ccccc1)c1ccc(Cl)cc1	58.5 µM (inactive)	52.4 µM (inactive)	> 100 µM (inactive)	7.03 µM (inactive)	5.43 µM (inactive)	12.6 µM (inactive)	34.4 µM (inactive)	52.4 µM (inactive)	> 100 µM (inactive)	4.32 µM (inactive)	18.7 µM (inactive)	19.3 µM (inactive)	35.7 µM (inactive)	3.33 µM (inactive)	27.7 µM (inactive)	27.5 µM (inactive)	20.5 µM (inactive)	17.7 µM (inactive)	7.94
O=C(Nc1noc(-c2ccccc2)n1)c1ccccc1CNc1noc(-c2ccccc2)n1	> 100 µM (inactive)	> 100 µM (inactive)	> 100 µM (inactive)	> 100 µM (inactive)	62.8 µM (inactive)	> 100 µM (inactive)	> 100 µM (inactive)	> 100 µM (inactive)	> 100 µM (inactive)	> 100 µM (inactive)	> 100 µM (inactive)	> 100 µM (inactive)	> 100 µM (inactive)	> 100 µM (inactive)	> 100 µM (inactive)	> 100 µM (inactive)	> 100 µM (inactive)	> 100 µM (inactive)	> 100
COc1ncc(C#CC(=O)c2ccccc2OC)c(OC)n1	5.87 µM (inactive)	1.42 µM (inactive)	1.71 µM (inactive)	0.78 µM (active)	2.32 µM (inactive)	1.86 µM (inactive)	1.77 µM (inactive)	0.684 µM (active)	2.86 µM (inactive)	0.738 µM (active)	3.15 µM (inactive)	5.7 µM (inactive)	2.06 µM (inactive)	0.386 µM (active)	6.35 µM (inactive)	17.7 µM (inactive)	15 µM (inactive)	4.98 µM (inactive)	0.621
C[Si](C)(c1ccccc1)[C@H]1CCCC=C1CCNC1c2ccccc2CCc2ccccc21	> 100 µM (inactive)	> 100 µM (inactive)	80 µM (inactive)	> 100 µM (inactive)	23.7 µM (inactive)	> 100 µM (inactive)	73.5 µM (inactive)	> 100 µM (inactive)	> 100 µM (inactive)	50.8 µM (inactive)	> 100 µM (inactive)	77.3 µM (inactive)	33.6 µM (inactive)	30 µM (inactive)	> 100 µM (inactive)	> 100 µM (inactive)	> 100 µM (inactive)	48.3 µM (inactive)	51.2
COC(=O)c1c(OC(C)=O)ccc2c1c1c(OC(C)=O)c3ccccc3c(OC(C)=O)c1n2Cc1cc(OC)cc(OC)c1	38.5 µM (inactive)	31.3 µM (inactive)	8.81 µM (inactive)		1.8 µM (inactive)	4.66 µM (inactive)	32.1 µM (inactive)	45.7 µM (inactive)	24.4 µM (inactive)	3.06 µM (inactive)	4.51 µM (inactive)	2.79 µM (inactive)	4.06 µM (inactive)	17.2 µM (inactive)	2.56 µM (inactive)	8.83 µM (inactive)	9.2 µM (inactive)	7.82 µM (inactive)	4.32
